Legend:
[1] = system: control sera (pooled serum of ten healthy LUMC hospital workers; commercial negative donor pooled serum from the Dutch bloodbank); assay type: binding, human; design: Binding of Control serum LUMC to linear peptides / Binding of Control serum Blood-bank to linear peptides / Binding of Control serum LUMC to looped peptides / Binding of Control Serum Blood-Bank to Looped peptides / Binding of Control serum LUMC to linear peptides of the protein M of SARS-CoV Urbani / Binding of Control serum Blood-bank to linear peptides of the protein M of SARS-CoV Urbani / Binding of Control serum LUMC to looped peptides of the protein M of SARS-CoV Urbani / Binding of Control Serum Blood-Bank to Looped peptides of the protein M of SARS-CoV Urbani: unit not given here
[2] = system: rabbit serum obtained by immunizing a rabbit with the SARS-CoV strain Frankfurt 1; assay type: binding; design: Binding of a rabbit serum to linear peptides / Binding of a rabbit serum to looped peptides / Rabbit serum linear peptides / Rabbit serum looped peptides / Binding of a rabbit serum to linear peptides of protein N of SARS-CoV Urbani (Rabbit serum linear peptides) / Binding of a rabbit serum to looped/cyclic peptides of protein N of SARS-CoV Urbani (Rabbit serum looped peptides): unit not given here
[3] = system: antibodies in sera from SARS patients (sera 1a, 1b, 2, 6, 37, 62, London, SARS-yellow, SARS-green); assay type: binding, human; design: Binding of serum 6 to linear peptides of protein X1 of SARS-CoV Urbani / Binding of serum 37 to linear peptides of protein X1 of SARS-CoV Urbani / Binding of serum 6 to looped/cyclic peptide (PEPSCAN-ELISA) / Binding of serum 37 to looped/cyclic peptide (PEPSCAN-ELISA) / Binding of serum 37 to looped/cyclic peptides of protein X1 of SARS-CoV Urbani / Binding of serum 6 to linear peptides of protein X2 / Binding of serum 37 to linear peptides of protein X2 / Binding of serum 37 to looped/cyclic peptides of protein X2 of SARS-CoV Urbani / Binding of serum 6 to linear peptides of protein M of SARS-CoV Urbani / Binding of serum 37 to linear peptides of protein M of SARS-CoV Urbani / Binding of serum 6 to looped/cyclic peptides of protein M of SARS-CoV Urbani / Binding of serum 37 to looped/cyclic peptides of protein M of SARS-CoV Urbani / Binding of serum 6 to linear peptides of protein X3 of SARS-CoV Urbani / Binding of serum 37 to linear peptides of protein X3 of SARS-CoV Urbani / Binding of serum 37 to looped/cyclic peptides of protein X3 of SARS-CoV Urbani / Binding of serum 6 to linear peptides of protein X4 of SARS-CoV Urbani / Binding of serum 37 to linear peptides of protein X4 of SARS-CoV Urbani / Binding of serum 37 to looped/cyclic peptides of protein X4 of SARS-CoV Urbani / Binding of serum 6 to linear peptides of protein X5 of SARS-CoV Urbani / Binding of serum 37 to linear peptides of protein X5 of SARS-CoV Urbani / Binding of serum 37 to looped/cyclic peptides of protein X5 of SARS-CoV Urbani / Binding of serum 6 to linear peptides of protein N of SARS-CoV Urbani / Binding of serum 37 to linear peptides of protein N of SARS-CoV Urbani / Binding of serum 6 to linear peptide (PEPSCAN-ELISA) / Binding of serum 1a to looped/cyclic peptides of protein N of SARS-CoV Urbani / Binding of serum 1b to looped/cyclic peptides of protein N of SARS-CoV Urbani / Binding of serum 2 to looped/cyclic peptides of protein N of SARS-CoV Urbani / Binding of serum 6 to looped/cyclic peptides of protein N of SARS-CoV Urbani / Binding of serum 37 to looped/cyclic peptides of protein N of SARS-CoV Urbani / Binding of serum 62 to looped/cyclic peptides of protein N of SARS-CoV Urbani / Binding of serum London to looped/cyclic peptides of protein N of SARS-CoV Urbani / Binding of serum SARS-green to looped/cyclic peptides of protein N of SARS-CoV Urbani: unit not given here
[4] = system: recombinant human anti-SARS-CoV antibody 03-018; assay type: binding; design: Binding of antibody 03-018 to linear peptides of the N protein of SARS-CoV Urbani / Binding of antibody 03-018 to looped/cyclic peptides of the N protein of SARS-CoV Urbani: unit not given here

| Sequence | Binding of serum 1a to linear peptides of protein N of SARS-CoV Urbani [3] | Binding of serum 1a to looped/cyclic peptides of protein N of SARS-CoV Urbani [3] | Binding of serum 1b to linear peptides of protein N of SARS-CoV Urbani [3] | Binding of serum 1b to looped/cyclic peptides of protein N of SARS-CoV Urbani [3] | Binding of serum 2 to linear peptides of protein N of SARS-CoV Urbani [3] | Binding of serum 2 to looped/cyclic peptides of protein N of SARS-CoV Urbani [3] | Binding of serum 6 to linear peptides of protein N of SARS-CoV Urbani [3] | Binding of serum 6 to looped/cyclic peptides of protein N of SARS-CoV Urbani [3] | Binding of serum 37 to linear peptides of protein N of SARS-CoV Urbani [3] | Binding of serum 37 to looped/cyclic peptides of protein N of SARS-CoV Urbani [3] | Binding of serum 62 to linear peptides of protein N of SARS-CoV Urbani [3] | Binding of serum 62 to looped/cyclic peptides of protein N of SARS-CoV Urbani [3] | Binding of serum London to linear peptides of protein N of SARS-CoV Urbani [3] | Binding of serum London to looped/cyclic peptides of protein N of SARS-CoV Urbani [3] | Binding of serum SARS-green to linear peptides of protein N of SARS-CoV Urbani [3] | Binding of serum SARS-green to looped/cyclic peptides of protein N of SARS-CoV Urbani [3] | Binding of serum SARS-yellow to linear peptides of protein N of SARS-CoV Urbani [3] | Binding of serum SARS-yellow to looped/cyclic peptides of protein N of SARS-CoV Urbani [3] | Binding of antibody 03-018 to linear peptides of the N protein of SARS-CoV Urbani [4] | Binding of antibody 03-018 to looped/cyclic peptides of the N protein of SARS-CoV Urbani [4] | further results |
| --- | --- | --- | --- | --- | --- | --- | --- | --- | --- | --- | --- | --- | --- | --- | --- | --- | --- | --- | --- | --- | --- |
| QGTDYKHWPQIAQFA | 0.3 | 0.4 | 0.2 | 0.3 | 0.2 | 0.4 | 0.2 | 0.3 | 0.8 | 0.6 | 0.8 | 0.6 | 0.7 | 0.5 | 0.2 | 0.3 | 0.7 | 0.7 | 0.1 | 0.2 | Control Serum Blood-Bank Looped peptides [1]: 0.6; Control serum Blood-bank linear peptides [1]: 0.8; Control serum LUMC linear peptides [1]: 0.6; Control serum LUMC looped peptides [1]: 0.7; Binding of a rabbit serum to linear peptides of protein N of SARS-CoV Urbani (Rabbit serum linear peptides) [2]: 0.2; Binding of a rabbit serum to looped/cyclic peptides of protein N of SARS-CoV Urbani (Rabbit serum looped peptides) [2]: 0.3 |
| QIGYYRRATRRVRGG | 0.3 | 0.3 | 0.1 | 0.2 | 0.2 | 0.4 | 0.2 | 0.3 | 0.6 | 0.7 | 0.6 | 0.6 | 0.5 | 0.4 | 0.2 | 0.4 | 0.6 | 0.6 | 0.1 | 0.2 | Binding of Control Serum Blood-Bank to Looped peptides [1]: 0.8; Binding of Control serum Blood-bank to linear peptides [1]: 0.8; Binding of Control serum LUMC to linear peptides [1]: 0.6; Binding of Control serum LUMC to looped peptides [1]: 0.7; Recognition of the peptide by the rabbit serum [2]: recognized |
| QLQNSMSGASADSTQ | 0.2 | 0.3 | 0.1 | 0.1 | 0.2 | 0.4 | 0.1 | 0.1 | 0.7 | 0.4 | 0.5 | 0.1 | 0.6 | 0.3 | 0.3 | 0.1 | 0.6 | 0.1 | 0.1 | 0.2 | Control Serum Blood-Bank Looped peptides [1]: 0.5; Control serum Blood-bank linear peptides [1]: 0.8; Control serum LUMC linear peptides [1]: 0.6; Control serum LUMC looped peptides [1]: 0.4; Binding of a rabbit serum to linear peptides of protein N of SARS-CoV Urbani (Rabbit serum linear peptides) [2]: 0.7; Binding of a rabbit serum to looped/cyclic peptides of protein N of SARS-CoV Urbani (Rabbit serum looped peptides) [2]: 0.5 |
| QNGGRNGARPKQRRP | 0.2 | 0.3 | 0.1 | 0.1 | 0.3 | 0.3 | 0.2 | 0.2 | 0.7 | 0.6 | 0.8 | 0.4 | 0.5 | 0.3 | 0.5 | 0.6 | 0.7 | 0.5 | 0.2 | 0.3 | Binding of Control Serum Blood-Bank to Looped peptides [1]: 0.6; Binding of Control serum Blood-bank to linear peptides [1]: 0.6; Binding of Control serum LUMC to linear peptides [1]: 0.8; Binding of Control serum LUMC to looped peptides [1]: 0.8; Binding of a rabbit serum to linear peptides of protein N of SARS-CoV Urbani (Rabbit serum linear peptides) [2]: 0.2; Binding of a rabbit serum to looped/cyclic peptides of protein N of SARS-CoV Urbani (Rabbit serum looped peptides) [2]: 0.4 |

Source: patent US20070128217A1 (priority 2003, published 2007)
